Earlier results as cited in patent US12016850B2, “Modified release pharmaceutical formulations comprising deferiprone” (Chiesi Farmaceutici S.p.A., priority 2022, dated 2024).

Conditions: background statement, species not given

In the case of `Cc1c(O)c(=O)ccn1C` [Deferiprone, 3-hydroxy-1,2-dimethylpyridin-4-one], the half-life is listed as 2 to 3 h.
